# Square brackets hold non-standard residues; d marks the D form. Ends that are not written are not given here. Peptide text beside a SMILES is read from it. * marks the point of attachment. Dicyclohexylacetyl = O=C(C(C1CCCCC1)C1CCCCC1)*; Butanoyl(2,2-Me2) = CCC(C)(C)C(=O)*; Octanoyl(6-Me) = CCC(C)CCCCC(=O)*; Octanoyl = CCCCCCCC(=O)*; X1 = CCCCC(CC)C(=O)*
# Assays:
# LPS S. Minnesota Re595 = assay: Endpoint LAL activity (Limulus gel-clotting test), inhibition of lipid A-induced LAL enzymatic cascade; format: biochemical; conditions: sensibility 0.125 EU/ml, peptide:LPS 100:1 (w/w), minimum of 6 tests in triplicate
# Method: (§1) The principle of lipid A-induced pro-inflammatory cytokine activity leading to hemorrhagic dermonecrosis (classical Shwartzmann reaction) was tested in rabbit, an animal model very close to humans in terms of sensitivity to LPS activity, and was compared to the inhibition of the lipid A-induced LAL enzymatic cascade activation leading to clot. Thereby, New Zealand White rabbits were injected in the shaved dorsal region with S. minnesota Re595 lipid A alone or with peptide 1:100 (w/w) (5 μg in 0.2 ml saline buffer; route i.d.). […] Polymyxin B (PmB) was used as a control.
# LPS Re595 = assay: Local Shwartzmann reaction in rabbit (lipid A-induced hemorrhagic dermonecrosis); format: in vivo, New Zealand White rabbits; conditions: i.d. injection in shaved dorsal region; open necrosis observed after 72-96 hours; minimum 3 injections in minimum 3 rabbits
# Method: as §1
# C. neoformans ATCC 32045 = format: cell-based; conditions: ATCC 32045, 72 h
# Method: C. neoformans ATCC 32045 cultures were maintained on yeast medium (YM; Difco Laboratories, Detroit, Mich.) agar plates at 4° C. Prior to the assay, the cultures were grown on agar plates and incubated for 72 hrs at 26° C. Two colonies of these newly grown fungal cultures were then inoculated in 5 ml of 2×YM broth, vortexed, and diluted 10-fold in 2×YM broth, for an approximate final assay concentration of 1×105 to 5×10^5 CFU/ml. In 96-well tissue culture plates, fungal suspensions in 2×YM broth were added to the peptides dispensed at concentrations ranging from 1 mg/ml to 1 μg/ml derived from serial twofold dilutions in sterile water. The plates were then incubated for 72 hrs at 26° C. The relative percent growth of the fungi found for each test sample was determined by the optical density at 620 nm (OD620) by using a Titertek Multiskan Plus apparatus. […] The IC50 were calculated by using a sigmoidal curve-fitting software program (Graphpad Prism; ISI Software, San Diego, Calif.).
Compound,Endpoint LAL activity peptide: LPS Re595 100:1 (w/w) (LPS S. Minnesota Re595),Local Shwartzmann reaction in rabbit peptide: LPS Re595 100:1 (w/w) (LPS Re595),average IC50 (C. neoformans ATCC 32045) [µg/mL],average MIC (C. neoformans ATCC 32045) [µg/mL]
"CC[C@H](C)[C@@H]1NC(=O)[C@H](CCCNC(=N)N)NC(=O)[C@H]([C@@H](C)CC)NC(=O)[C@H](CCCNC(=N)N)NC(=O)[C@H](Cc2c[nH]c3ccccc23)NC(=O)[C@H](Cc2ccccc2)NC(=O)[C@H](CCCNC(=N)N)NC(=O)[C@H](CCCNC(=N)N)NC1=O [VF50, cyclo FWRIRIRR-NH2] (cyclo(FWRIRIRR))",NEGATIVE,NEGATIVE,,
"CC[C@H](C)[C@H](NC(=O)[C@H](CCCNC(=N)N)NC(=O)[C@H](CCCCN)NC(=O)[C@H](Cc1c[nH]c2ccccc12)NC(=O)[C@H](CCCNC(=N)N)NC(=O)C(C1CCCCC1)C1CCCCC1)C(=O)N[C@@H](CC(N)=O)C(=O)N[C@@H](CCCNC(=N)N)C(=O)N[C@@H](CCC(N)=O)C(=O)N[C@@H](Cc1c[nH]c2ccccc12)C(=O)N[C@@H](Cc1ccccc1)C(N)=O [VS1-49, dicyclohexylacetyl RWKRINRQWF-NH2] (Dicyclohexylacetyl-RWKRINRQWF-NH2)",,,2,4
"CCCCCCCC(=O)N1CCC[C@H]1C(=O)N[C@@H](Cc1ccccc1)C(=O)N[C@@H](Cc1c[nH]c2ccccc12)C(=O)N[C@@H](CCCNC(=N)N)C(=O)N[C@H](C(=O)N[C@@H](CCCNC(=N)N)C(=O)N[C@H](C(=O)N[C@@H](CCCNC(=N)N)C(=O)N[C@@H](CCCNC(=N)N)C(N)=O)[C@@H](C)CC)[C@@H](C)CC [VS1-50, octanoyl PFWRIRIRR-NH2] (Octanoyl-PFWRIRIRR-NH2)",,,6,16
"CCCCC(CC)C(=O)N1CCC[C@H]1C(=O)N[C@@H](Cc1ccccc1)C(=O)N[C@@H](Cc1c[nH]c2ccccc12)C(=O)N[C@@H](CCCNC(=N)N)C(=O)N[C@H](C(=O)N[C@@H](CCCNC(=N)N)C(=O)N[C@H](C(=O)N[C@@H](CCCNC(=N)N)C(=O)N[C@@H](CCCNC(=N)N)C(N)=O)[C@@H](C)CC)[C@@H](C)CC (stereo partly drawn) [VS1-51, 2-ethylhexanoyl PFWRIRIRR-NH2] (X1-PFWRIRIRR-NH2)",,,3,8
"CC[C@H](C)[C@H](NC(=O)[C@H](CCCNC(=N)N)NC(=O)[C@@H](NC(=O)[C@H](CCCNC(=N)N)NC(=O)[C@H](Cc1c[nH]c2ccccc12)NC(=O)[C@H](Cc1ccccc1)NC(=O)[C@@H]1CCCN1C(=O)C(C1CCCCC1)C1CCCCC1)[C@@H](C)CC)C(=O)N[C@@H](CCCNC(=N)N)C(=O)N[C@@H](CCCNC(=N)N)C(N)=O [VS1-54, dicyclohexylacetyl PFWRIRIRR-NH2] (Dicyclohexylacetyl-PFWRIRIRR-NH2)",,,3,8
"CCCCCCCC(=O)N[C@@H](Cc1ccccc1)C(=O)N[C@@H](Cc1c[nH]c2ccccc12)C(=O)N[C@@H](CCCNC(=N)N)C(=O)N[C@H](C(=O)N[C@@H](CCCNC(=N)N)C(=O)N[C@H](C(=O)N[C@@H](CCCNC(=N)N)C(=O)N[C@@H](CCCNC(=N)N)C(N)=O)[C@@H](C)CC)[C@@H](C)CC [VS1-55, octanoyl FWRIRIRR-NH2] (Octanoyl-FWRIRIRR-NH2)",,,4,16
"CCCCC(CC)C(=O)N[C@@H](Cc1ccccc1)C(=O)N[C@@H](Cc1c[nH]c2ccccc12)C(=O)N[C@@H](CCCNC(=N)N)C(=O)N[C@H](C(=O)N[C@@H](CCCNC(=N)N)C(=O)N[C@H](C(=O)N[C@@H](CCCNC(=N)N)C(=O)N[C@@H](CCCNC(=N)N)C(N)=O)[C@@H](C)CC)[C@@H](C)CC (stereo partly drawn) [VS1-56, 2-ethylhexanoyl FWRIRIRR-NH2] (X1-FWRIRIRR-NH2)",,,3,16
"CC[C@H](C)[C@H](NC(=O)[C@H](CCCNC(=N)N)NC(=O)[C@@H](NC(=O)[C@H](CCCNC(=N)N)NC(=O)[C@H](Cc1c[nH]c2ccccc12)NC(=O)[C@H](Cc1ccccc1)NC(=O)C(C)(C)CC)[C@@H](C)CC)C(=O)N[C@@H](CCCNC(=N)N)C(=O)N[C@@H](CCCNC(=N)N)C(N)=O [VS1-57, 2,2-dimethylbutanoyl FWRIRIRR-NH2] ({Butanoyl(2,2-Me2)}-FWRIRIRR-NH2)",,,2,4
"CCC(C)CCCCC(=O)N[C@@H](Cc1ccccc1)C(=O)N[C@@H](Cc1c[nH]c2ccccc12)C(=O)N[C@@H](CCCNC(=N)N)C(=O)N[C@H](C(=O)N[C@@H](CCCNC(=N)N)C(=O)N[C@H](C(=O)N[C@@H](CCCNC(=N)N)C(=O)N[C@@H](CCCNC(=N)N)C(N)=O)[C@@H](C)CC)[C@@H](C)CC (stereo partly drawn) [VS1-58, 6-methyloctanoyl FWRIRIRR-NH2] ({Octanoyl(6-Me)}-FWRIRIRR-NH2)",,,6,16
"CC[C@H](C)[C@H](NC(=O)[C@H](CCCNC(=N)N)NC(=O)[C@@H](NC(=O)[C@H](CCCNC(=N)N)NC(=O)[C@H](Cc1c[nH]c2ccccc12)NC(=O)[C@H](Cc1ccccc1)NC(=O)C(C1CCCCC1)C1CCCCC1)[C@@H](C)CC)C(=O)N[C@@H](CCCNC(=N)N)C(=O)N[C@@H](CCCNC(=N)N)C(N)=O [VS1-59, dicyclohexylacetyl FWRIRIRR-NH2] (Dicyclohexylacetyl-FWRIRIRR-NH2)",,,14,62
"CCCCCCCC(=O)N[C@@H](Cc1ccccc1)C(=O)N[C@@H](Cc1c[nH]c2ccccc12)C(=O)N[C@@H](CCCNC(=N)N)C(=O)N[C@@H](CCCNC(=N)N)C(=O)N[C@@H](Cc1ccccc1)C(=O)N[C@@H](Cc1c[nH]c2ccccc12)C(=O)N[C@@H](CCCNC(=N)N)C(=O)N[C@@H](CCCNC(=N)N)C(N)=O [VS1-60, octanoyl FWRRFWRR-NH2] (Octanoyl-FWRRFWRR-NH2)",,,10,32
"CCCCC(CC)C(=O)N[C@@H](Cc1ccccc1)C(=O)N[C@@H](Cc1c[nH]c2ccccc12)C(=O)N[C@@H](CCCNC(=N)N)C(=O)N[C@@H](CCCNC(=N)N)C(=O)N[C@@H](Cc1ccccc1)C(=O)N[C@@H](Cc1c[nH]c2ccccc12)C(=O)N[C@@H](CCCNC(=N)N)C(=O)N[C@@H](CCCNC(=N)N)C(N)=O (stereo partly drawn) [VS1-61, 2-ethylhexanoyl FWRRFWRR-NH2] (X1-FWRRFWRR-NH2)",,,6,16
"CCC(C)(C)C(=O)N[C@@H](Cc1ccccc1)C(=O)N[C@@H](Cc1c[nH]c2ccccc12)C(=O)N[C@@H](CCCNC(=N)N)C(=O)N[C@@H](CCCNC(=N)N)C(=O)N[C@@H](Cc1ccccc1)C(=O)N[C@@H](Cc1c[nH]c2ccccc12)C(=O)N[C@@H](CCCNC(=N)N)C(=O)N[C@@H](CCCNC(=N)N)C(N)=O [VS1-62, 2,2-dimethylbutanoyl FWRRFWRR-NH2] ({Butanoyl(2,2-Me2)}-FWRRFWRR-NH2)",,,4,16
"CCC(C)CCCCC(=O)N[C@@H](Cc1ccccc1)C(=O)N[C@@H](Cc1c[nH]c2ccccc12)C(=O)N[C@@H](CCCNC(=N)N)C(=O)N[C@@H](CCCNC(=N)N)C(=O)N[C@@H](Cc1ccccc1)C(=O)N[C@@H](Cc1c[nH]c2ccccc12)C(=O)N[C@@H](CCCNC(=N)N)C(=O)N[C@@H](CCCNC(=N)N)C(N)=O (stereo partly drawn) [VS1-63, 6-methyloctanoyl FWRRFWRR-NH2] ({Octanoyl(6-Me)}-FWRRFWRR-NH2)",,,11,62
"N=C(N)NCCC[C@H](NC(=O)[C@H](CCCNC(=N)N)NC(=O)[C@H](Cc1c[nH]c2ccccc12)NC(=O)[C@H](Cc1ccccc1)NC(=O)[C@H](CCCNC(=N)N)NC(=O)[C@H](CCCNC(=N)N)NC(=O)[C@H](Cc1c[nH]c2ccccc12)NC(=O)[C@H](Cc1ccccc1)NC(=O)C(C1CCCCC1)C1CCCCC1)C(N)=O [VS1-64, dicyclohexylacetyl FWRRFWRR-NH2] (Dicyclohexylacetyl-FWRRFWRR-NH2)",,,6,32
FWQRNIRKVRRRI-NH2 [Peptide P1-12],NEGATIVE,NEGATIVE,,
FWQRNYRKVR-NH2 [Peptide P1-39],NEGATIVE,NEGATIVE,,
FwRNIRIRR-NH2 (F[dW]RNIRIRR-NH2; N-terminus assumed; SMILES CC[C@H](C)[C@H](NC(=O)[C@H](CCCNC(=N)N)NC(=O)[C@@H](NC(=O)[C@H](CC(N)=O)NC(=O)[C@H](CCCNC(=N)N)NC(=O)[C@@H](Cc1c[nH]c2ccccc12)NC(=O)[C@@H](N)Cc1ccccc1)[C@@H](C)CC)C(=O)N[C@@H](CCCNC(=N)N)C(=O)N[C@@H](CCCNC(=N)N)C(N)=O) [Peptide P2-11],NEGATIVE,NEGATIVE,,
